Broadly, the mass density is the mass of a sample divided by its volume. By refractive index is commonly meant a measure of how strongly the sample bends light.

Numbers after ± are expanded uncertainties.

The values below come from the NIST ThermoML archive (doi:10.1016/j.jct.2004.07.010).

For data set [1] the following is noted: 298.15 K, 101.33 kPa, Liquid.
The nature of data set [2]: refractive index (Na D-line) (dimensionless). Particulars: 293.15 K; 101.33 kPa; Liquid; Standard Abbe refractometry.

As to `c1ccccc1` [benzene], in data set [1], the mass density is given as 873.56 ± 0.35 kg/m3. Also, the refractive index in data set [2] is 1.5009 ± 0.0007.

As to `O=C1CCCCC1` [cyclohexanone], the mass density in data set [1] (Vibrating tube method) is given as 941.7 ± 0.11 kg/m3. Further, in data set [2], the refractive index is 1.4507 ± 0.0007.

With `CCc1ccccc1` [ethylbenzene], the mass density in data set [1] (Vibrating tube method) is reported as 862.44 ± 0.55 kg/m3. Also, the refractive index in data set [2] was 1.4962 ± 0.0008.

For the molecule `C=Cc1ccccc1` [styrene], the mass density in data set [1] is listed as 901.51 ± 0.31 kg/m3. Also, the refractive index in data set [2] is 1.546 ± 0.0007.

For the molecule `Cc1ccccc1` [toluene], the mass density in data set [1] is 862.14 ± 0.94 kg/m3. In addition, the refractive index in data set [2] amounted to 1.4965 ± 0.0008.
